Assay results from PubChem BioAssay (NCI).
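Following 48 hours of exposure in 96-well plates, responses at five concentrations were used to interpolate endpoints linearly. TGI: total growth inhibition.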

What was measured:
Assay in all cases: DTP human tumour cell line panel, 48 h
[1] = tested on: SF-268 CNS
[2] = tested on: ACHN renal
[3] = tested on: HCT-116 colon
[4] = tested on: 786-0 renal
[5] = tested on: SNB-75 CNS
[6] = tested on: SK-MEL-2 melanoma
[7] = tested on: K-562 leukemia
[8] = tested on: SK-MEL-5 melanoma
[9] = tested on: IGROV1 ovarian
[10] = tested on: MCF7 breast
[11] = tested on: HCC-2998 colon
[12] = tested on: SF-539 CNS
[13] = tested on: MOLT-4 leukemia
[14] = tested on: KM12 colon
[15] = tested on: HS 578T breast
[16] = tested on: NCI-H226 lung
[17] = tested on: BT-549 breast
[18] = tested on: CAKI-1 renal
[19] = tested on: HL-60(TB) leukemia
[20] = tested on: OVCAR-5 ovarian
[21] = tested on: NCI-H23 lung
[22] = tested on: OVCAR-3 ovarian
[23] = tested on: RXF 393 renal
[24] = tested on: SNB-19 CNS
[25] = tested on: COLO 205 colon
[26] = tested on: SK-MEL-28 melanoma
[27] = tested on: HOP-62 NSCLC
[28] = tested on: U251 CNS
[29] = tested on: MDA-MB-231 breast
[30] = tested on: LOX IMVI melanoma
[31] = tested on: DU-145 prostate
[32] = tested on: NCI-H522 lung
[33] = tested on: PC-3 prostate
[34] = tested on: OVCAR-8 ovarian
[35] = tested on: RPMI-8226 leukemia
[36] = tested on: A498 renal
[37] = tested on: CCRF-CEM leukemia
[38] = tested on: NCI/ADR-RES ovarian
[39] = tested on: HOP-92 NSCLC
[40] = tested on: UACC-62 melanoma
[41] = tested on: NCI-H460 lung
[42] = tested on: MDA-N
[43] = tested on: UO-31 renal
[44] = tested on: HT29 colon
[45] = tested on: EKVX NSCLC
[46] = tested on: T-47D breast
[47] = tested on: UACC-257 melanoma
[48] = tested on: MDA-MB-435
[49] = tested on: OVCAR-4 ovarian
[50] = tested on: SW-620 colon
[51] = tested on: M14 melanoma
[52] = tested on: MALME-3M melanoma
[53] = tested on: SF-295 CNS
[54] = tested on: SR leukemia
[55] = tested on: SN12C renal
[56] = tested on: A549 NSCLC
[57] = tested on: HCT-15 colon

Cc1cc(=O)oc2c(CN(CCCl)CCCl)c(O)ccc12
TGI [1]: > 100 µM
TGI [2]: > 100 µM
TGI [3]: > 100 µM
TGI [4]: > 100 µM
TGI [5]: > 100 µM
TGI [6]: > 100 µM
TGI [7]: > 100 µM
TGI [8]: > 100 µM
TGI [9]: > 100 µM
TGI [10]: > 100 µM
TGI [11]: > 100 µM
TGI [12]: > 100 µM
TGI [13]: 98.8 µM
TGI [14]: > 100 µM
TGI [15]: > 100 µM
TGI [16]: > 100 µM
TGI [17]: 78.5 µM
TGI [18]: > 100 µM
TGI [19]: 27.4 µM
TGI [20]: > 100 µM
TGI [21]: > 100 µM
TGI [22]: > 100 µM
TGI [23]: > 100 µM
TGI [24]: > 100 µM
TGI [25]: 71.7 µM
TGI [26]: > 100 µM
TGI [27]: > 100 µM
TGI [28]: > 100 µM
TGI [29]: > 100 µM
TGI [30]: > 100 µM
TGI [31]: > 100 µM
TGI [32]: 36.4 µM
TGI [33]: > 100 µM
TGI [34]: > 100 µM
TGI [35]: 63.6 µM
TGI [36]: > 100 µM
TGI [37]: 31.7 µM
TGI [38]: > 100 µM
TGI [39]: > 100 µM
TGI [40]: 71.2 µM
TGI [41]: > 100 µM
TGI [42]: > 100 µM
TGI [43]: > 100 µM
TGI [44]: > 100 µM
TGI [45]: > 100 µM
TGI [46]: > 100 µM
TGI [47]: > 100 µM
TGI [48]: > 100 µM
TGI [49]: > 100 µM
TGI [50]: > 100 µM
TGI [51]: > 100 µM
TGI [52]: > 100 µM
TGI [53]: > 100 µM
TGI [54]: > 100 µM
TGI [55]: > 100 µM
TGI [56]: > 100 µM
TGI [57]: > 100 µM
